Experimental data from patent EP0552417B1, “Cyclic peptides and use thereof” (priority 1991, dated 1993).
Read-outs that look alike come from different tables or passages of the source. Non-standard residues stand in square brackets, D forms with d. Residues, ends and D or L forms follow the SMILES beside them. *: point of attachment. Hyp = O=C(O)[C@@H]1C[C@@H](O)CN1; d2Thi = N[C@H](Cc1cccs1)C(=O)O; Pip = O=C(O)[C@@H]1CCCCN1; Aze = O=C(O)[C@@H]1CCN1; For = O=C*

Columns and labels:
[1] = molecular target: T1, endothelin receptor B (ETB) (Bos taurus, UniProt P28088); test: Assay of affinity for receptor (2): binding activity on ETB receptor *1, 125I-labeled endothelin-1, bovine brain membrane fraction; details: specific activity, taking the binding activity of the compound of Example 8 on receptor B as 100, 25°C, 1 hour
T1 construct: A membrane fraction prepared from the bovine brain; from tissue; host or cells: bovine brain membrane fraction
T1 sequence (P28088 27-441): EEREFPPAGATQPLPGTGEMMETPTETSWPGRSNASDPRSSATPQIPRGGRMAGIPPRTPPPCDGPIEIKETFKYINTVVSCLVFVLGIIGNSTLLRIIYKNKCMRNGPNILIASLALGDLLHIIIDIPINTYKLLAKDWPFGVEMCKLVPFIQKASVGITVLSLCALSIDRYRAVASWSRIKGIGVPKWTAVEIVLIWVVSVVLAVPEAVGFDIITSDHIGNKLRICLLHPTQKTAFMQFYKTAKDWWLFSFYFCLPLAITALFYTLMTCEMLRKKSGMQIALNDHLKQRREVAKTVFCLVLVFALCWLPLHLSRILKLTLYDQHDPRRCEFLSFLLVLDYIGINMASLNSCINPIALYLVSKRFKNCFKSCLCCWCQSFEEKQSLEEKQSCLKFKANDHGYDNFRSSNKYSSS
Description: Assay of Affinity for Receptor (2) ... Binding Activity on ETB Receptor *1
A membrane fraction prepared from the bovine brain was diluted to 0.15 mg/ml by using a buffer solution for assay, and 100 µl of the resulting suspension of the membrane fraction was poured into each assay tube to use for assay. To this suspension of the membrane fraction was added 2 µl of 5 nM ^125I labeled endothelin-1 solution. Further, 3 µl of a test peptide solution was added thereto, followed by incubation at a temperature of 25°C for 1 hour. Then, the resulting suspension was diluted with 900 µl of the buffer solution for assay cooled with ice, and thereafter separated into a supernatant and a precipitate by centrifugation at 12,000 X g for 10 minutes. Cell membranes and an endothelin receptor B (ETB) embedded therein were contained in the precipitate, and radioactive iodine-labeled endothelin bound to the receptor was also recovered in the precipitate. Accordingly, the amount of radioactive iodine-labeled endothelin bound to the endothelin receptor B (ETB) was determined by measuring the amount of radioactive iodine contained in the precipitate with a gamma-ray counter. The numerical value of ETB shown in Table 1 is the value of specific activity, taking the binding activity of the compound of Example 8 on the receptor B as 100.

[2] = molecular target: T2, endothelin receptor A (ETA) (Sus scrofa, UniProt Q29010); test: Assay of affinity for receptor (1): binding activity on ETA receptor, 125I-labeled endothelin-1, porcine heart membrane fraction; design: key: relative specific activity; reference cyclic pentapeptide ETA binding = 1.0; details: specific activity, taking the binding activity of control cyclo[-D-Glu-Ala-D-aIle-Leu-D-Trp-] on receptor A as 1.0, 25°C, 1 hour
T2 construct: A membrane fraction prepared from the porcine heart; from tissue; host or cells: porcine heart membrane fraction
T2 sequence (Q29010 21-427): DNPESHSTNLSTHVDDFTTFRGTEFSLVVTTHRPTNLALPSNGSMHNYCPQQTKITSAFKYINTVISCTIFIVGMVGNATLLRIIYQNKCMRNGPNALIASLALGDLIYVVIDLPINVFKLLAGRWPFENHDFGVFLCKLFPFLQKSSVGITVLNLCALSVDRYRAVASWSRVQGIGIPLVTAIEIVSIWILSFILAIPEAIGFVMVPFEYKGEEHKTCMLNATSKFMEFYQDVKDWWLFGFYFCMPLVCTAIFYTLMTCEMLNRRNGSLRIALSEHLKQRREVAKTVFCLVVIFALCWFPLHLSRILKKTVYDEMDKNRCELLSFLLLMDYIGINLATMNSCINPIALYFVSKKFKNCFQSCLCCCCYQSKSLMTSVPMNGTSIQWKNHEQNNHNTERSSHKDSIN
Description: Assay of Affinity for Receptor (1) ... Binding Activity on ETA Receptor
A membrane fraction prepared from the porcine heart was diluted to 0.15 mg/ml by using a buffer solution for assay, and 100 µl of the resulting suspension of the membrane fraction was poured into each assay tube to use for assay. To this suspension of the membrane fraction was added 2 µl of 5 nM ^125I-labeled endothelin-1 solution. Further, 3 µl of a test peptide solution was added thereto, followed by incubation at a temperature of 25°C for 1 hour. Then, the resulting suspension was diluted with 900 µl of the buffer solution for assay cooled with ice, and thereafter separated into a supernatant and a precipitate by centrifugation at 12,000 X g for 10 minutes. Cell membranes and an endothelin receptor A (ETA) embedded therein were contained in the precipitate, and radioactive iodine-labeled endothelin combined with the receptor was also recovered in the precipitate. Accordingly, the amount of radioactive iodine-labeled endothelin combined with the endothelin receptor A (ETA) was determined by measuring the amount of radioactive iodine contained in the precipitate with a gamma-ray counter. The cyclic pentapeptide described in Japanese Patent Application No. 2-413328/1990, cyclo[-D-Glu-Ala-D-aIle-Leu-D-Trp-], was used as a control compound. The numerical value of ETA shown in Table 1 is the value of specific activity, taking the binding activity of this cyclic pentapeptide on the receptor A as 1.0. The binding activity (IC50) of this cyclic pentapeptide on the ETA receptor is 2x10^-6 M.

ETB = ETB radio receptor assay *2, 125I-endothelin-1, guinea pig kidney crude membrane fraction; type: binding, Guinea pigs; details: relative activity, 37 °C, 90 minutes
Description: ETB Radio Receptor Assay *2
In the endothelin radio receptor assay, guinea pigs' kidneys were used. Guinea pigs (Std Hartrey, male 250 g, Japan SLC Ltd.) were made to have a cerebral concussion and sacrificed by bleeding from carotid arteries to pick up the kidneys and removed fat therefrom to prepare the kidneys. The obtained kidneys were sliced and homogenized by politron homogenizer in 20 ml of 50 mM Tris-HCl buffer [pH 7.4; 20 mM NaHCO3, 0.1 mM PMSF (Phenylmethylsulfonyl Fluoride), 1 mM EDTA (Ethylenediaminetetraacetic acid)] per one kidney. The homogenized kidney was applied to a centrifugation at 1,000 x g for 15 minutes and the supernatant was further applied to a centrifugation for 20 minutes at 30,000 x g. The resulting precipitate was twice washed with 50 mM Tris-HCl buffer (pH 7.4) containing 0.1 mM PMSF, 1 mM EDTA. The resultant was stored at -80 °C as a crude receptor membrane fraction and was used as the suspension in the following buffer when necessary.
740 Bq of ^125I-endothelin-1 (81.4 TBq/mmol, Du Pont, USA) as a radio ligand, the crude membrane fraction (2.1 µg protein) and samples were added to the following buffer. The reaction was performed at 37 °C, for 90 minutes in 0.2 ml of the buffer [50 mM Tris-HCl buffer (pH 7.4) containing 0.1 mM PMSF, 1 mM EDTA, 0.2% bovine serum albumin].
The reaction was stopped by fast filtration on a glass filter (GF/B, Wattman, USA) by Cell Harvestor (290 PHD, Cambridge-Technology, Great Britain), and the filter was three times washed with 50 mM Tris-HCl buffer (pH 7.4). Radio activity remained on the filter was assayed by a gamma counter.

[3] = amide bond, 18-membered ring, DMF, 4 steps
[4] = HONB/DCC (preactivation), HCl/dioxane, TEA, 5.0 mM

Row | Compound | Binding Activity on ET Receptor (R. act.) ETB*1 [1] | Binding Activity on ET Receptor (R. act.) ETA [2] | Binding Activity on ET Receptor (R. act.) ETB*2 (ETB) | also measured
1 | CC(C)C[C@@H]1NC(=O)[C@@H](CC(C)C)NC(=O)[C@H](CC(=O)O)NC(=O)[C@H](Cc2cn(C=O)c3ccccc23)NC(=O)[C@@H](CC(=O)O)NC(=O)[C@@H](Cc2c[nH]c3ccccc23)NC1=O [Example 22, Cyclo[-D-Asp-Trp(For)-Asp-D-Leu-Leu-D-Trp-]] (cyclo(D[dL]L[dW][dD]W(For))) | 6.7 | 8.3 | 15 | 
2 | CC(C)C[C@@H]1NC(=O)[C@@H](Cc2cccs2)NC(=O)[C@H](CC(=O)O)NC(=O)[C@H](Cc2c[nH]c3ccccc23)NC(=O)[C@@H](CC(=O)O)NC(=O)[C@@H](Cc2c[nH]c3ccccc23)NC1=O [Example 50, Cyclo[-D-Asp-Trp-Asp-D-Thi-Leu-D-Trp-]] (cyclo(D[d2Thi]L[dW][dD]W)) | 350 | 4 | 57 | 
3 | CC(C)C[C@@H]1NC(=O)[C@@H](C(C)C)NC(=O)[C@H](CC(=O)O)NC(=O)[C@H](Cc2c[nH]c3ccccc23)NC(=O)[C@@H](CC(=O)O)NC(=O)[C@@H](Cc2c[nH]c3ccccc23)NC1=O [Example 52, Cyclo[-D-Asp-Trp-Asp-D-Val-Leu-D-Trp-]] (cyclo(D[dV]L[dW][dD]W)) | 240 | 75 | 100 | 
4 | CC(C)C[C@H]1NC(=O)[C@H](CC(=O)O)NC(=O)[C@H](C)NC(=O)[C@@H](CC(=O)O)NC(=O)[C@@H](Cc2c[nH]c3ccccc23)NC(=O)[C@H](Cc2c[nH]c3ccccc23)NC1=O [Example 58, Cyclo[-D-Asp-Ala-Asp-D-Leu-Trp-D-Trp-]] (cyclo(AD[dL]W[dW][dD])) | 6.7 | 0.7 | 22 | 
5 | cyclo[-D-Asp-Pro-Asp-D-Leu-Leu-D-Trp-] |  |  |  | ring closure, yield after HPLC ([3]; HONB ester (HONB/DCC preactivation)/TEA, 5.1 mM): 47.4%
6 | cyclo[-D-Asp-Trp-Asp-D-Leu-Leu-D-Trp-] |  |  |  | ring closure, yield after HPLC ([3]; HONB ester (HONB/DCC preactivation)/TEA, 5.0 mM): 52.9%
7 | cyclo[-D-Asp-Trp-Asp-D-Thg(2)-Leu-D-Trp-] |  |  |  | ring closure, yield after HPLC ([3]; HONB/DCC (preactivation), HCl/dioxane, TEA, 5.1 mM): 4.6%
8 | cyclo[-D-Asp-Trp-Asp-D-tLeu-Leu-D-Trp-] |  |  |  | ring closure, yield after HPLC [3, 4]: 42.8%
9 | cyclo[-D-Asp-Trp-Asp-D-γMeLeu-Leu-D-Trp-] |  |  |  | ring closure, yield after HPLC [3, 4]: 51.5%

Further lines, with some results ahead:

Row | Binding Activity on ET Receptor (R. act.) ETB*1 [1] | Binding Activity on ET Receptor (R. act.) ETA [2] | Binding Activity on ET Receptor (R. act.) ETB*2 (ETB) | Compound | also measured
10 | 13 | 9.7 | 2.0 | CC(C)C[C@@H]1NC(=O)[C@@H](CC(C)C)NC(=O)[C@H](CC(=O)O)NC(=O)[C@H](C)NC(=O)[C@@H](CC(=O)O)NC(=O)[C@@H](Cc2c[nH]c3ccccc23)NC1=O [Example 1, cyclo[-D-Asp-Ala-Asp-D-Leu-Leu-D-Trp-]] (cyclo(AD[dL]L[dW][dD])) | 
11 | 140 | 56 | 67 | CC(C)C[C@@H]1NC(=O)[C@@H](CC(C)C)NC(=O)[C@H](CC(=O)O)NC(=O)[C@@H]2CCCN2C(=O)[C@@H](CC(=O)O)NC(=O)[C@@H](Cc2c[nH]c3ccccc23)NC1=O [Example 9, cyclo[-D-Asp-Pro-Asp-D-Leu-Leu-D-Trp-]] (cyclo(D[dL]L[dW][dD]P)) | 
12 | 160 | 70 | 120 | CC(C)C[C@@H]1NC(=O)[C@@H](CC(C)C)NC(=O)[C@H](CC(=O)O)NC(=O)[C@@H]2C[C@@H](O)CN2C(=O)[C@@H](CC(=O)O)NC(=O)[C@@H](Cc2c[nH]c3ccccc23)NC1=O [Example 14, cyclo[-D-Asp-Hyp-Asp-D-Leu-Leu-D-Trp-]] (cyclo(D[dL]L[dW][dD][Hyp])) | 
13 | 14 | 10 | 34 | CC(C)C[C@@H]1NC(=O)[C@@H](CC(C)C)NC(=O)[C@H](CC(=O)O)NC(=O)[C@H](CC(=O)O)NC(=O)[C@@H](CC(=O)O)NC(=O)[C@@H](Cc2c[nH]c3ccccc23)NC1=O [Example 16, Cyclo[-D-Asp-Asp-Asp-D-Leu-Leu-D-Trp-]] (cyclo(DD[dL]L[dW][dD])) | 
14 | 25 | 30 | 57 | CC(C)C[C@@H]1NC(=O)[C@@H](CC(C)C)NC(=O)[C@H](CC(=O)O)NC(=O)[C@@H]2CCN2C(=O)[C@@H](CC(=O)O)NC(=O)[C@@H](Cc2c[nH]c3ccccc23)NC1=O [Example 25, Cyclo[-D-Asp-Azc-Asp-D-Leu-Leu-D-Trp-]] (cyclo([Aze]D[dL]L[dW][dD])) | 
15 | 38 | 25 | 73 | CC(C)C[C@@H]1NC(=O)[C@@H](CC(C)C)NC(=O)[C@H](CC(=O)O)NC(=O)[C@@H]2CCCCN2C(=O)[C@@H](CC(=O)O)NC(=O)[C@@H](Cc2c[nH]c3ccccc23)NC1=O [Example 26, Cyclo[-D-Asp-Pip-Asp-D-Leu-Leu-D-Trp-]] (cyclo(D[dL]L[dW][dD][Pip])) | 
